Laboratory results reported in patent US10253071B2, “Selectin inhibitors, composition, and uses related thereto” (Beth Israel Deaconess Medical Center, Inc., priority 2014, dated 2019).
Like-named read-outs stand apart in the source and are kept apart here. Square brackets hold non-standard residues; d marks the D form. Ends that are not written are not given here. Peptide text beside a SMILES is read from it. * marks the point of attachment. X1 = CC(=O)N[C@@H]1[C@@H](O[C@@H]2O[C@H](CO)[C@H](O)[C@H](O)[C@H]2O)[C@@H](O)[C@@H](CO[C@@H]2O[C@H](CO)[C@@H](O[C@@H]3O[C@H](CO)[C@H](O)[C@H](O[C@]4(C(=O)O)C[C@H](O)[C@@H](NC(C)=O)[C@H]([C@H](O)[C@H](O)CO)O4)[C@H]3O)[C@H](O[C@@H]3O[C@@H](C)[C@@H](O)[C@@H](O)[C@@H]3O)[C@H]2NC(C)=O)O[C@@H]1*; Phe(4-SO3H) = N[C@@H](Cc1ccc(S(=O)(=O)O)cc1)C(=O)O; Mca = COc1ccc2c(CC(=O)*)cc(=O)oc2c1

How the values were obtained:
mouse P-selectin = molecular target: T1, mouse P-selectin (Mus musculus, UniProt Q01102); assay: Biacore binding assay, mouse P-selectin
T1 sequence (Q01102 42-768): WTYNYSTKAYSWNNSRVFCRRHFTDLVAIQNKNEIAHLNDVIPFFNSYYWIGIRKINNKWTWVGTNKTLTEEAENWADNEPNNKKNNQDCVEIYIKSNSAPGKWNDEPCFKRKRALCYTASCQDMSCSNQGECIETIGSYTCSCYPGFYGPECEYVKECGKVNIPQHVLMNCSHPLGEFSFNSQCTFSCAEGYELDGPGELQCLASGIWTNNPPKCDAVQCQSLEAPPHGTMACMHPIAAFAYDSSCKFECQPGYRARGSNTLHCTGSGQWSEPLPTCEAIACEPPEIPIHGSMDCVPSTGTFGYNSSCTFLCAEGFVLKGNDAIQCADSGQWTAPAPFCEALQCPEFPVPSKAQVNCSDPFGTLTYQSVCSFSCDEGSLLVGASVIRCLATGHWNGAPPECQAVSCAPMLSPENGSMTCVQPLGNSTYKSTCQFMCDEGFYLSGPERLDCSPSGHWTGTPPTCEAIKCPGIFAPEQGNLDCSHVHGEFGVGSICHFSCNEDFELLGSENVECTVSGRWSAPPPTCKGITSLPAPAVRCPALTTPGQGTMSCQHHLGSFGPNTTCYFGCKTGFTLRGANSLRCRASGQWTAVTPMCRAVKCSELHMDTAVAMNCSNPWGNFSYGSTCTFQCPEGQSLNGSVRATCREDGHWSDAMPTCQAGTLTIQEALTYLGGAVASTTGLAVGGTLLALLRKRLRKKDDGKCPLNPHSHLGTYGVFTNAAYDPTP
Experimental: (§1) Bound peptides were detected using Alexa-488 labeled anti-human IgG antibody (5 μg/mL). Three lectins RCA-1, AAL, and PNA were used to confirm the sequence of enzymatic steps. Monoclonal antibodies CHO131, PSG2 antibody and PL-1 were used to confirm the presence of SLex, tyrosine sulfates, and the peptide sequence, respectively. Biacore binding analysis to human P-selectin with observed rate constants for (D) GSnP-6, kon 3.1×10^5 M^−1s^−1, koff 6.9×10^3 M^−1s^−; GSn2P-6, kon6.4×10^5 M^−1s^−1, koff 6.8×10^3 M^−1s. Biacore binding analysis to mouse P-selectin with observed rate constants for (E) GsnP-6, kon 4.9×10^4 M^−1s^−1, koff 8.0×10^3 M^−1s^−; GSn2P-6 kon 5.3×10^4 M^−1s^−1, koff 9.0×10^3 M^−1s. (F) Temperature- and pH-dependent stability studies of GSnP-6.
(§2) Dissociation constants (Kd) were determined using a Biacore binding assay after initial capture of biotinylated GS(n)P-6 onto streptavidin-coated sensor chips followed by flow through of P-, L- or E-sel-Ig (2.5 to 60 μg/mL). […] The Kd of GSnP-6 to murine P-selectin was ˜9-fold lower than to human P-selectin.

human P-selectin [1] = molecular target: T2, human P-selectin (Homo sapiens, UniProt P16109); assay: Biacore binding assay, human P-selectin
T2 sequence (P16109 42-830): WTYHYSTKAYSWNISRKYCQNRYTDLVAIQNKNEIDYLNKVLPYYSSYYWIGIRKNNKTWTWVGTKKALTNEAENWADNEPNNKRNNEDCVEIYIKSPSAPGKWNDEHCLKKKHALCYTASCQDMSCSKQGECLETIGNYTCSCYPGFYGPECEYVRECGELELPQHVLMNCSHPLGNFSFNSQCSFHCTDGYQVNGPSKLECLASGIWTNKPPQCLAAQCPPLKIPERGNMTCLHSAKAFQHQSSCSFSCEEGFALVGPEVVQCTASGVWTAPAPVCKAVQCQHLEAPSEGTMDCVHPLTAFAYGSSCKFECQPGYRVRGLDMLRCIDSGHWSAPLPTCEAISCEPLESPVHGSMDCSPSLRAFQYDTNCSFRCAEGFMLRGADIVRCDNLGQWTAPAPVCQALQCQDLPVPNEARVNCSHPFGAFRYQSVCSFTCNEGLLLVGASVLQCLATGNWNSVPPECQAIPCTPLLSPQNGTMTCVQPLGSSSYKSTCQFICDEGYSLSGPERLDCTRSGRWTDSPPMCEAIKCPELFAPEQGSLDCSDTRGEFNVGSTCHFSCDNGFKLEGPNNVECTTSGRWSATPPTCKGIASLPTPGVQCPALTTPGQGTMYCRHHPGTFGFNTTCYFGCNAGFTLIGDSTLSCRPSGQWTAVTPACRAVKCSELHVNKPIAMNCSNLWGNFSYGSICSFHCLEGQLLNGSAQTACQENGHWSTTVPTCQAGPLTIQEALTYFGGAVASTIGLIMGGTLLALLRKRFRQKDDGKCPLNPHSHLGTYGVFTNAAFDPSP
Experimental: as §1, §2

[2] = Chemical stability at low pH and at high temperature (RP-HPLC); format: physicochemical; settings: sodium acetate/acetic acid buffer pH 5, 37° C.; and 2 mM phosphate buffer pH 7.5, 60° C.
Experimental: as §1
The chemical stability of GSnP-6 was evaluated under low pH conditions by incubating the compound in sodium acetate/acetic acid buffer at pH 5, 37° C., as well as under high temperature conditions by incubation in 2 mM phosphate buffer at pH 7.5, 60° C. (FIG. 3E).

[3] = tested on: P-selectin (recombinant Ig chimera); assay: Microarray binding screen of glycopeptide mimics, P-selectin; design: species or system human and mouse; settings: selectin Ig chimeras 5-20 μg/mL, Alexa-488 anti-human IgG
Experimental: as §1
Binding affinities of PSGL-1 mimics towards selectins was initially screened using a microarray in which glycosulfopeptides and glycan standards (Sialyl Le^x, NA2, NA2,3, NA2,6 and LNnT) were printed on a NHS-activated glass slide. The slide was then incubated with recombinant Ig chimeras of P-, L-, or E-selectin (5-20 μg/mL) followed by Alexa-488 labeled anti-human IgG antibody (5 μg/mL). […] Binding of glycopeptides mimics to selectins was […] dependent and inhibited by EDTA.

human P-selectin [4] = molecular target: T2, human P-selectin; settings: comparison value for P-selectin; read-out: Kd of native PSGL-1 (comparison value); cited from earlier work

## COc1ccc2c(CC(=O)NCCCC[C@H](N)C(=O)N[C@@H](CCC(=O)O)C(=O)N[C@@H](Cc3ccc(S(=O)(=O)O)cc3)C(=O)N[C@@H](CCC(=O)O)C(=O)N[C@@H](Cc3ccc(S(=O)(=O)O)cc3)C(=O)N[C@@H](CC(C)C)C(=O)N[C@@H](CC(=O)O)C(=O)N[C@@H](Cc3ccc(S(=O)(=O)O)cc3)C(=O)N[C@@H](CC(=O)O)C(=O)N[C@@H](Cc3ccccc3)C(=O)N[C@@H](CC(C)C)C(=O)N3CCC[C@H]3C(=O)N[C@@H](CCC(=O)O)C(=O)N[C@H](C(=O)N[C@@H](CCC(=O)O)C(=O)N3CCC[C@H]3C(=O)N[C@@H](CC(C)C)C(=O)O)[C@@H](C)O[C@H]3O[C@H](CO[C@@H]4O[C@H](CO)[C@@H](O[C@@H]5O[C@H](CO)[C@H](O)[C@H](O[C@]6(C(=O)O)C[C@H](O)[C@@H](NC(C)=O)[C@H]([C@H](O)[C@H](O)CO)O6)[C@H]5O)[C@H](O[C@@H]5O[C@@H](C)[C@@H](O)[C@@H](O)[C@@H]5O)[C@H]4NC(C)=O)[C@H](O)[C@H](O[C@@H]4O[C@H](CO)[C@H](O)[C@H](O)[C@H]4O)[C@H]3NC(C)=O)cc(=O)oc2c1 [GSn2P-6] (H-K(Mca)E[Phe(4-SO3H)]E[Phe(4-SO3H)]LD[Phe(4-SO3H)]DFLPET(X1)EPL-OH; N-terminus assumed)
Mouse P-selectin; read-out: koff, mouse P-selectin
  koff: 0.009 s⁻¹
Mouse P-selectin; read-out: kon, mouse P-selectin
  kon: 53000 M⁻¹ s⁻¹
Human P-selectin [1]; Biacore observed rate constant
  koff: 0.0068 s⁻¹
  kon: 640000 M⁻¹ s⁻¹
Human P-selectin [1]; biotinylated GS(n)P-6 captured on streptavidin chip, P-sel-Ig 2.5 to 60 μg/mL, read-out: Dissociation constant (Kd) to human P-selectin
  Kd: 14 nM

## GSP-6: Tyrosine O-sulfate series (X: O; R=H); native N-terminal PSGL-1 sequence containing tyrosine sulfate, hexasaccharide glycan (EYEYLDYDFLPETEPPE; also: tyrosine O-sulfate, positions not given here, hexasaccharide glycan, site not given here) [reference compound]
[2]
  chemical stability (degraded products by RP-HPLC): rapidly degrades
[3]
  binding to P-selectin compared with E- or L-selectin: bound to P-selectin more strongly than to E- or L-selectin

B1: native PSGL-1: native P-selectin glycopeptide ligand-1, Kd comparison value (protein, UniProt Q14242 42-412, looked up)
P-selectin glycoprotein …: QATEYEYLDYDFLPETEPPEMLRNSTDTTPLTGPGTPESTTVEPAARRSTGLDAGGAVTELTTELANMGNLSTDSAAMEIQTTQPAATEAQTTQPVPTEAQTTPLAATEAQTTRLTATEAQTTPLAATEAQTTPPAATEAQTTQPTGLEAQTTAPAAMEAQTTAPAAMEAQTTPPAAMEAQTTQTTAMEAQTTAPEATEAQTTQPTATEAQTTPLAAMEALSTEPSATEALSMEPTTKRGLFIPFSVSSVTHKGIPMAASNLSVNYPVGAPDHISVKQCLLAILILALVATIFFVCTVVLAVRLSRKGHMYPVRNYSPTEMVCISSLLPDGGEGPSATANGGLSKAKSPGLTPEPREDREGDDLTLHSFLP
Human P-selectin [4]
  Kd: 73 nM
